According to patent publication US11065220B2, “Anti-pathogenic therapeutic compositions” (Wintermute Biomedical, Inc., priority 2017, dated 2021):

Experiments:
[1] = test system: MRSA; assay: Iodonitrotetrazolium chloride assay of MRSA growth, various anthraquinones with L-Arg and UCA; assay type: cell-based, Staphylococcus aureus; conditions: FIG. 20
Experimental: Although the WT13-13 example compound described herein uses cassic acid (rhein) as the anthraquinones, other anthraquinones may be used. This is illustrated in FIG. 20, for example. In FIG. 20, antibiotic effects of other anthraquinones were tested against MRSA. As shown, identical ratios of L-Arg and UCA were combined with various anthraquinones, including cassic acid (Rhein), aloe-emodin (AloeE), and chrysophanol (Chyrs.). Formulations were tested for MRSA growth using an iodonitrotetrazolium chloride assay. Each compound was MRSA was assayed in media control and subtracted from the values taken from the wells containing MRSA to control for colorimetric alterations. Each MRSA well contained 100,000 CFUs in 100 microliters.
As shown in FIG. 20 discussed above, in addition to cassic acid, other anthraquinones were tested for activity using an iodonitrotetrazolium chloride assay. Each anthraquinone was assayed for activity against one or more pathogen. In FIG. 20 activity was tested against MRSA growth.

[2] = test system: MRSA; assay: In-vitro resistance study, repeated sub-inhibitory exposures of MRSA; assay type: cell-based, Staphylococcus aureus; conditions: sub-inhibitory concentrations
Experimental: A number of standard in-vitro resistance studies were conducted to predict the onset and mechanism of resistance for an anti-pathogenic compound such as WT13-13. The standard test comprises exposing bacteria to sub-inhibitory concentrations of an antibiotic over a number of exposures and monitoring the bacterial growth. As the bacteria develop resistance to the drug, the growth rate will rise. Tests were performed by treating MRSA with sub-inhibitory concentrations of both WT13-13 and mupirocin (separately) in order to study the behavior of WT13-13 and compare with that of mupirocin. The horizontal dotted lines represent the ideal, non-resistant behavior. That is, if an antibiotic were effective and the bacteria not developing resistance to it, its growth curve would be flat and follow the dotted line. However, all antibiotics to date experience bacterial resistance and trend upwards of the dotted line, towards the MRSA-only control line (if an antibiotic reaches the control line, it is completely ineffective and the bacteria is resistant to the antibiotic). […] The shading 1201 highlights this behavior. […] The shading 1203 highlights this behavior. […] Such “anti-resistance” has not been reported in an antibiotic before.

## O=C(O)C(=O)O [oxcalic acid]
[1]
  inhibition of MRSA growth: Inhibition of growth

## C/C(=C\C(=O)OCCCCCCCCC(=O)O)C[C@@H]1OC[C@H](C[C@@H]2O[C@H]2[C@@H](C)[C@H](C)O)[C@@H](O)[C@H]1O [mupirocin]
[2]
  development of resistance over multiple exposures (growth trend): trends upwards towards the control line

## O=C1c2cccc(O)c2C(=O)c2c(O)cccc21 [dantron]
[1]
  inhibition of MRSA growth: Inhibition of growth
